The record followed here is patent publication EP4748839A1 (CSPC Zhongqi Pharmaceutical Technology (Shijiazhuang) Co., …, priority 2023, dated 2025).

Data set [1] is described as follows: In vivo pharmacokinetic assay in mice. As to conditions: mouse; ICR mice (female), oral gavage 10 mg/kg, plasma. As to the method: Experimental animals: ICR mice (female, 22-25 g), purchased from Beijing Vital River Laboratory Animal Technology Co., Ltd.
Experimental procedure: ICR mice were administered the test compounds by gavage. Whole blood samples of the mice were collected at 15 min, 0.5 h, 1 h, 2 h, 4 h, 8 h and 24 h after administration and centrifuged to isolate plasma. The compound concentration was measured by LC-MS/MS, and pharmacokinetic parameters such as Area Under the Concentration-Time Curve (AUC) were calculated using Winnolin software.
Oral gavage dose: 10 mg/kg.
Measurement method: Quantitative analysis was carried out in the LC/MS/MS system after pretreatment with a protein precipitation method.

Another data set concerns the target T1, GLP-1R (Homo sapiens, UniProt P43220).
T1 construct: expressed in transfected cells
In words: GLP-1R agonistic effect in GLP1R-cAmp-Luc cells (luciferase reporter; titled 'Enzymatic assay'). The format is cell-based. The settings on record: for EC50: 4 hours incubation, firefly luciferin signal; for EC50 of Positive reference / EC50 of Compound of the Present Application: Positive reference is PF-06882961. As to the method:
The GLP-1R agonistic effects of the test compounds were determined using GLP1R-cAmp-Luc cells. 1) The test compound was dissolved in DMSO and mixed well until the test compound was completely dissolved. The test compounds were dissolved in DMSO to prepare 10 mM stock solutions. All compounds were diluted with DMEM medium (high sugar, Puromycin^+, Hygromycin B^+) to an initial concentration of 1250 nM, and then subjected to 5-fold serial dilution to a total of 7 concentration gradients. The GLP1R-cAmp-Luc cells were seeded in white-wall 96-well cell culture plates at a density of 1×10^5/mL, with 90 µL cell suspension per well; the test compound at each of the 7 concentration gradients was added at 10 µL per well, with the actual initial working concentration of 125 nM; and the cells were placed in a 37 °C, 5% CO2 cell incubator for 4 hours; 2) 100 µL of luciferin potassium salt solution diluted to 300 µg/mL in PBS was added to each well at a working concentration of 150 µg/mL and incubated at room temperature for 30 minutes; 3) fluorescence signals of firefly luciferin were measured with a multifunctional microplate reader (PerkinElmer, Nivo); and the fluorescence values were processed using GraphPad Prism software to calculate EC50 values.

Data set [2] deals with C57BL/6 hGLP1R transgenic mice. In words: Determination of food intake inhibition rate. The class given is in vivo. As to conditions: C57BL/6 hGLP1R mice, gavage, 2mpk, administrated once. As to the method:
The food intake of C57BL/6 hGLP1R transgenic mice in each cage was measured at 18:00 on the day before administration, and the remaining weight of food was measured at 8: 00 on the next day (day 0) The difference between the two measurements was recorded as the baseline food intake weight. The mice were randomly grouped (test compound group and vehicle group) according to the baseline food intake and body weight. The food intake and body weight of the mice at 0 h were measured before administration. The mice were administered by gavage at 20:00 on day 0, and then the food intake and body weight of the mice were measured at specific time points. The phase (within a defined period of time) food intake, phase food intake rate, cumulative (after administration to a specific time point) food intake, cumulative food intake rate and body weight were finally statistically analyzed to evaluate the food intake inhibitory effect of the compounds. Cumulative Food intake (g) = (mbefore)−(mafter). [formula]
"m before" is the weight of food before food intaking for the period of time, and "m after" is the weight of food after food intaking for the period of time. Food intake inhibition rate (%) = (1−(madministrationgroup)/(mvehiclegroup))*100. [formula]
"m administration group" is the cumulative food intake of the administration group during the period of time, and "m vehicle group" is the cumulative food intake of the vehicle group during the period of time.

T1 sequence (P43220 24-463, species assumed): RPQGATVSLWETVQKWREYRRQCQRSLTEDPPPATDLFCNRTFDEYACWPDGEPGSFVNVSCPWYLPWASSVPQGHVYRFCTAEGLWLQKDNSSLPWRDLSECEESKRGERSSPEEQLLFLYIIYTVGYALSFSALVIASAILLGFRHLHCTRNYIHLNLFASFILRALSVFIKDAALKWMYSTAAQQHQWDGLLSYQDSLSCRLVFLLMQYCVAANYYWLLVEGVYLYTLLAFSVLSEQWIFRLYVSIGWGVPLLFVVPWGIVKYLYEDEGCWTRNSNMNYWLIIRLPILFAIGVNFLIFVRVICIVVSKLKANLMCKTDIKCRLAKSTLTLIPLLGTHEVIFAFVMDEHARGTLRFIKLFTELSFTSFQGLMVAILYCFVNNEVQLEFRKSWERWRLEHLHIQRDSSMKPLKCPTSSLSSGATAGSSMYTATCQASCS

Take `O=C(O)c1ccc2nc(Cc3c(F)cc(-c4cccc(OCc5ccc(Cl)cc5F)n4)c4c3CCO4)n(CC3(CF)CC3)c2c1` [Compound 14, 2-((7-(6-((4-chloro-2-fluorobenzyl)oxy)pyridin-2-yl)-5-fluoro-2,3-dihydrobenzofuran-4-yl)methyl)-1-((1-(fluoromethyl)cyclopropyl)methyl)-1H-benzo[d]imidazole-6-carboxylic acid]: the AUC(0-t) in data set [1] worked out at 12700 ng·h/mL. The 50% effective concentration (EC50) at GLP-1R was in the range of 1 to 5 nM.

Compound `COc1cc(C(F)(F)F)ccc1COc1cccc(-c2cc(F)c(Cc3nc4ccc(C(=O)O)cc4n3CC3(CF)CC3)c3c2OCC3)n1` [Compound 83, 2-((5-Fluoro-7-(6-((2-methoxy-4-(trifluoromethyl)benzyl)oxy)pyridin-2-yl)-2,3-dihydrobenzofuran-4-yl)methyl)-1-((1-(fluoromethyl)cyclopropyl)methyl)-1H-benzo[d]imidazole-6-carboxylic acid] showed an AUC(0-t) in data set [1] of 14000 ng·h/mL.

In the case of `COc1cc(C(F)(F)F)ccc1COc1cccc(-c2cc(F)c(Cc3nc4c(OC)cc(C(=O)O)cc4n3CC3(CF)CC3)c3c2OCC3)n1` [Compound 89, 2-((5-Fluoro-7-(6-((2-methoxy-4-(trifluoromethyl)benzyl)oxy)pyridin-2-yl)-2,3-dihydrobenzofuran-4-yl)methyl)-1-((1-(fluoromethyl)cyclopropyl)methyl)-4-methoxy-1H-benzo[d]imidazole-6-carboxylic acid], the area under the curve AUC(0-t) in data set [1] stood at 14100 ng·h/mL. The EC50 at GLP-1R is at most 1 nM.

With `COc1cc(C(=O)O)cc2c1nc(Cc1c(F)cc(-c3cccc(OCc4ccc(Cl)cc4F)n3)c3c1CCO3)n2CC1(CF)CC1` [Compound 92, 2-((7-(6-((4-Chloro-2-fluorobenzyl)oxy)pyridin-2-yl)-5-fluoro-2,3-dihydrobenzofuran-4-yl)methyl)-1-((1-(fluoromethyl)cyclopropyl)methyl)-4-methoxy-1H-benzo[d]imidazole-6-carboxylic acid], in data set [1], the AUC(0-t) was determined as 23700 ng·h/mL.

Consider `COc1cc(C(=O)O)cc2c1nc(Cc1c(F)cc(-c3cccc(OCc4ccc(C#N)cc4F)n3)c3c1CCO3)n2CC1(CF)CC1` [Compound 93, 2-((7-(6-((4-Cyano-2-fluorobenzyl)oxy)pyridin-2-yl)-5-fluoro-2,3-dihydrobenzofuran-4-yl)methyl)-1-((1-(fluoromethyl)cyclopropyl)methyl)-4-methoxy-1H-benzo[d]imidazole-6-carboxylic acid], for which the area under the curve AUC(0-t) in data set [1] amounted to 8440 ng·h/mL. The compound further had a concentration giving a half-maximal response (EC50) on GLP-1R of at most 1 nM.

Regarding `COc1cc(C(=O)O)cc2c1nc(Cc1c(F)cc(-c3ccc(F)c(OCc4ccc(Cl)cc4F)n3)c3c1CCO3)n2C[C@@H]1CCO1` [Compound 101, (S)-2-((7-(6-((4-chloro-2-fluorobenzyl)oxy)-5-fluoropyridin-2-yl)-5-fluoro-2,3-dihydrobenzofuran-4-yl)methyl)-4-methoxy-1-(oxetan-2-ylmethyl)-1H-benzo[d]imidazole-6-carboxylic acid], the AUC(0-t) in data set [1] turned out to be 22500 ng·h/mL. In data set [2] (0-2.5 hours), the “cumulative food intake inhibition rate 0-2.5 hours” value is on record as 97%. Further, the “cumulative food intake inhibition rate 0-5 hours” value in data set [2] (0-5 hours) turned out to be 89%. Besides, in data set [2] (0-12 hours), the “cumulative food intake inhibition rate 0-12 hours” value amounted to 75%. Also, at GLP-1R, the EC50 was at most 1 nM and the “EC50 of Positive reference / EC50 of Compound of the Present Application” value is “Ratio ≥10”.

As to `COc1cc(C(=O)O)cc2c1nc(Cc1c(F)cc(-c3ccc(F)c(OCc4ccc(Cl)cc4F)c3)c3c1CCO3)n2C[C@@H]1CCO1` [Compound 105, (S)-2-((7-(3-((4-chloro-2-fluorobenzyl)oxy)-4-fluorophenyl)-5-fluoro-2,3-dihydrobenzofuran-4-yl)methyl)-4-methoxy-1-(oxetan-2-ylmethyl)-1H-benzo[d]imidazole-6-carboxylic acid], the AUC(0-t) in data set [1] is 6900 ng·h/mL. The compound further registered an EC50 at GLP-1R of 1 to 5 nM.

The compound `COc1cc(C(=O)O)cc2c1nc(Cc1c(F)cc(-c3nc(OCc4ccc(Cl)cc4F)ncc3F)c3c1CCO3)n2C[C@@H]1CCO1` [Compound 118, (S)-2-((7-(2-((4-chloro-2-fluorobenzyl)oxy)-5-fluoropyrimidin-4-yl)-5-fluoro-2,3-dihydrobenzofuran-4-yl)methyl)-4-methoxy-1-(oxetan-2-ylmethyl)-1H-benzo[d]imidazole-6-carboxylic acid] had an area under the curve AUC(0-t) in data set [1] of 8300 ng·h/mL. In addition, on GLP-1R, the EC50 is at most 1 nM and the “EC50 of Positive reference / EC50 of Compound of the Present Application” value was “Ratio ≥10”.

For the compound `COc1cc(C(F)(F)F)ccc1COc1ncc(F)c(-c2cc(F)c(Cc3nc4c(OC)cc(C(=O)O)cc4n3C[C@@H]3CCO3)c3c2OCC3)n1` [Compound 130, (S)-2-((7-(5-fluoro-2-((2-methoxy-4-(trifluoromethyl)benzyl)oxy)pyrimidin-4-yl)-5-fluoro-2,3-dihydrobenzofuran-4-yl)methyl)-4-methoxy-1-(oxetan-2-ylmethyl)-1H-benzo[d]imidazole-6-carboxylic acid], on GLP-1R, the EC50 is at most 1 nM and the “EC50 of Positive reference / EC50 of Compound of the Present Application” value is listed as “Ratio ≥10”.

For the compound `COc1cc(C(=O)O)cc2c1nc(Cc1c(F)cc(-c3nc(OCc4ccc(Cl)cc4OC(F)F)ncc3F)c3c1CCO3)n2C[C@@H]1CCO1` [Compound 131], at GLP-1R, the concentration for a half-maximal effect (EC50) was at most 1 nM and the “EC50 of Positive reference / EC50 of Compound of the Present Application” value is “Ratio ≥10”.

For the compound `COc1cc(C(=O)O)cc2c1nc(Cc1c(F)cc(-c3ccc(F)c(OCc4ccc(C)cc4F)n3)c3c1CCO3)n2C[C@@H]1CCO1` [Compound 132, (S)-2-((7-(5-fluoro-6-((2-fluoro-4-methylbenzyl)oxy)pyridin-2-yl)-5-fluoro-2,3-dihydrobenzofuran-4-yl)methyl)-4-methoxy-1-(oxetan-2-ylmethyl)-1H-benzo[d]imidazole-6-carboxylic acid], the AUC(0-t) in data set [1] was determined as 19500 ng·h/mL. At GLP-1R, the half-maximal effective concentration (EC50) is at most 1 nM and the “EC50 of Positive reference / EC50 of Compound of the Present Application” value is “Ratio ≥10”.

As to `COc1cc(C(=O)O)cc2c1nc(Cc1c(F)cc(-c3ccnc(OCc4ccc(C)cc4F)n3)c3c1CCO3)n2C[C@@H]1CCO1` [Compound 133, (S)-2-((7-(2-((2-fluoro-4-methylbenzyl)oxy)pyrimidin-4-yl)-5-fluoro-2,3-dihydrobenzofuran-4-yl)methyl)-4-methoxy-1-(oxetan-2-ylmethyl)-1H-benzo[d]imidazole-6-carboxylic acid], on GLP-1R, the 50% effective concentration (EC50) is at most 1 nM and the “EC50 of Positive reference / EC50 of Compound of the Present Application” value is reported as “Ratio ≥10”.

`COc1cc(C(=O)O)cc2c1nc(Cc1c(F)cc(-c3nc(OCc4ccc(C)cc4F)ncc3F)c3c1CCO3)n2C[C@@H]1CCO1` [Compound 134] registered an AUC(0-t) in data set [1] of 15700 ng·h/mL. Moreover, at GLP-1R, the EC50 is at most 1 nM and the “EC50 of Positive reference / EC50 of Compound of the Present Application” value is given as “Ratio ≥10”.

For orientation: AUC(0-t) means the area under the concentration-time curve up to a stated or last time point. A higher AUC(0-t) goes with high exposure. In general, EC50 refers to the concentration that produces a half-maximal response. A lower EC50 goes with an effect from little substance.
